# From patent publication US12187770B2, “Cyclic peptide from novel bone morphogenetic protein 2, preparation method therefor and application thereof” (Hangzhou Huibo Science and Technology Co., Ltd, priority 2019, dated 2025)
# Bridge positions count the residues as written; N and C are the ends. Peptide text beside a SMILES is read from it.
# Test: Acute toxicity in animals
# Conditions: in vivo
structure (smiles),measurement,value
CC[C@H](C)[C@@H]1NC(=O)[C@H](C)NC(=O)[C@H](CO)NC(=O)[C@H](CC(C)C)NC(=O)[C@H](CCC(=O)O)NC(=O)[C@H]([C@@H](C)O)NC(=O)[C@@H]2CCCN2C(=O)[C@H](C(C)C)NC(=O)[C@H](CO)NC(=O)[C@H](CO)NC(=O)[C@H](C)NC(=O)[C@H](CCCCN)NC(=O)[C@@H]2CCCN2C(=O)[C@H]([C@@H](C)CC)NC(=O)[C@H](CCCCN)NC(=O)[C@@H](N)CSSC[C@@H](C(=O)O)NC(=O)[C@H](C)NC(=O)[C@H](C(C)C)NC(=O)[C@H]([C@@H](C)CC)NC(=O)[C@H](Cc2c[nH]c3ccccc23)NC(=O)[C@H](CC(=O)O)NC(=O)CNC(=O)CNC(=O)[C@@H]2CCCN2C(=O)CNC(=O)[C@H](CC(C)C)NC(=O)[C@H](Cc2ccc(O)cc2)NC(=O)[C@H](CC(C)C)NC(=O)[C@H](CCSC)NC(=O)[C@H](CO)NC1=O [M-C-BMP2] (H-CKIPKASSVPTELSAISMLYLGPGGDWIVAC-OH; disulfide 1-31),acute toxicity in animals,has not been found to have acute toxicity in animals
